{"source": "patent US6737383B1", "about": "“Herbicidal oxadiazolidines” (priority 1999, dated 2004)", "key": {"rice": {"tested_on": "rice", "test": "Test B flood test rice", "assay_type": "in vivo, Oryza sativa", "how_it_was_run": "(§1)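 Each value is a visual injury score relative to controls, with 10 meaning complete control and 0 no effect. Evaluation took place twelve to sixteen days after the 2-leaf-stage plants were treated and kept in the greenhouse.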"}, "sugar beet": {"tested_on": "sugar beet", "test": "Test B pre/postemergence sugar beet", "assay_type": "in vivo, Beta vulgaris", "how_it_was_run": "(§2)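 Response is a visual 0-to-10 score relative to untreated plants, where 0 means no effect and 10 means complete control, taken twelve to sixteen days after application. Treatments went onto soil at planting and onto foliage of 1- to 4-leaf plants, using a surfactant-containing non-phytotoxic solvent.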"}, "pigweed": {"tested_on": "pigweed", "test": "Test B pre/postemergence pigweed", "assay_type": "in vivo, Amaranthus retroflexus", "how_it_was_run": "as §2"}, "bamyardgrass": {"tested_on": "bamyardgrass", "test": "Test B flood test barnyardgrass", "assay_type": "in vivo, Echinochloa crus-galli", "how_it_was_run": "as §1"}, "giant foxtail": {"tested_on": "giant foxtail", "test": "Test B pre/postemergence giant foxtail", "assay_type": "in vivo, Setaria faberii", "how_it_was_run": "as §2"}, "morningglory": {"tested_on": "morningglory", "test": "Test B pre/postemergence morningglory", "assay_type": "in vivo, Ipomoea hederacea", "how_it_was_run": "as §2"}, "rape": {"tested_on": "rape", "test": "Test B pre/postemergence rape", "assay_type": "in vivo, Brassica napus", "how_it_was_run": "as §2"}, "wheat": {"tested_on": "wheat", "test": "Test B pre/postemergence wheat", "assay_type": "in vivo, Triticum aestivum", "how_it_was_run": "as §2"}, "bedstraw": {"tested_on": "bedstraw", "test": "Test B pre/postemergence bedstraw", "assay_type": "in vivo, Galium aparine", "how_it_was_run": "as §2"}, "smallflower flatsedge": {"tested_on": "smallflower flatsedge", "test": "Test B flood test smallflower flatsedge", "assay_type": "in vivo, Cyperus difformis", "how_it_was_run": "as §1"}, "blackgrass": {"tested_on": "blackgrass", "test": "Test B pre/postemergence blackgrass", "assay_type": "in vivo, Alopecurus myosuroides", "how_it_was_run": "as §2"}, "purple nutsedge": {"tested_on": "purple nutsedge", "test": "Test B pre/postemergence purple nutsedge", "assay_type": "in vivo, Cyperus rotundus", "how_it_was_run": "as §2"}, "soybean": {"tested_on": "soybean", "test": "Test B pre/postemergence soybean", "assay_type": "in vivo, Glycine max", "how_it_was_run": "as §2"}, "velvetleaf": {"tested_on": "velvetleaf", "test": "Test B pre/postemergence velvetleaf", "assay_type": "in vivo, Abutilon theophrasti", "how_it_was_run": "as §2"}, "duck salad": {"tested_on": "duck salad", "test": "Test B flood test duck salad", "assay_type": "in vivo, Heteranthera limosa", "how_it_was_run": "as §1"}, "wild oat": {"tested_on": "wild oat", "test": "Test B pre/postemergence wild oat", "assay_type": "in vivo, Avena fatua", "how_it_was_run": "as §2"}, "[1]": {"details": "Rate 62 g/ha, headed Pre-emergence (flood test species), scale 0 to 10 (0 no effect, 10 complete control)"}, "[2]": {"details": "Rate 125 g/ha, Pre-emergence, flood test species, scale 0 to 10 where 0 is no effect and 10 is complete control"}, "[3]": {"details": "Rate 250 g/ha, Pre-emergence, flood-test species, scale 0 to 10, 0 is no effect, 10 is complete control"}, "[4]": {"details": "Rate 500 g/ha, Pre-emergence, flood test species, scale 0 to 10 (0 no effect, 10 complete control)"}, "[5]": {"details": "Postemergence, Rate 125 g/ha, scale 0 to 10, 0 is no effect, 10 is complete control"}, "[6]": {"details": "Preemergence, Rate 62 g/ha, scale of 0 to 10 where 0 is no effect and 10 is complete control"}, "[7]": {"details": "Preemergence, Rate 250 g/ha, scale of 0 to 10 where 0 is no effect and 10 is complete control"}, "[8]": {"details": "Preemergence, Rate 500 g/ha, scale of 0 to 10 where 0 is no effect and 10 is complete control"}, "[9]": {"details": "Rate 62 g/ha, Postemergence, scale 0 to 10 (0 no effect, 10 complete control)"}, "[10]": {"details": "Rate 500 g/ha, Postemergence, scale 0 to 10, 0 no effect, 10 complete control"}}}
{"compound": "Cc1ccccc1-n1c(=O)on(C(=O)N(c2ccc(Cl)cc2)C(C)C2CC2)c1=O", "note": "(centres unmarked) [Compound 330]", "values": [{"measurement": "Rice plant response rating", "setting": "rice; [1]", "value": 0}, {"measurement": "Rice plant response rating", "setting": "rice; [2]", "value": 0}, {"measurement": "Rice plant response rating", "setting": "rice; [3]", "value": 0}, {"measurement": "Rice plant response rating", "setting": "rice; [4]", "value": 0}, {"measurement": "Plant response rating, Sugarbeets", "setting": "sugar beet; [5]", "value": 0}, {"measurement": "Sugarbeets plant response rating", "setting": "sugar beet; [6]", "value": 0}, {"measurement": "Sugarbeets plant response rating (0 to 10 scale)", "setting": "sugar beet; Preemergence, Rate 125 g/ha", "value": 0}, {"measurement": "Sugarbeets plant response rating", "setting": "sugar beet; [7]", "value": 0}, {"measurement": "Sugarbeets plant response rating", "setting": "sugar beet; [8]", "value": 0}, {"measurement": "Sugarbeets plant response rating", "setting": "sugar beet; [9]", "value": 0}, {"measurement": "Plant response rating, Sugarbeets", "setting": "sugar beet; [10]", "value": 0}, {"measurement": "Plant response rating, Redroot pigweed", "setting": "pigweed; [5]", "value": 0}, {"measurement": "Redroot pigweed plant response rating", "setting": "pigweed; [6]", "value": 0}, {"measurement": "Redroot pigweed plant response rating (0 to 10 scale)", "setting": "pigweed; Preemergence, Rate 125 g/ha", "value": 0}, {"measurement": "Redroot pigweed plant response rating", "setting": "pigweed; [7]", "value": 0}, {"measurement": "Redroot pigweed plant response rating", "setting": "pigweed; [8]", "value": 0}, {"measurement": "Redroot pigweed plant response rating", "setting": "pigweed; [9]", "value": 0}, {"measurement": "Plant response rating, Redroot pigweed", "setting": "pigweed; [10]", "value": 0}, {"measurement": "Barnyardgrass plant response rating", "setting": "bamyardgrass; [1]", "value": 0}, {"measurement": "Barnyardgrass plant response rating", "setting": "bamyardgrass; [2]", "value": 0}, {"measurement": "Barnyardgrass plant response rating", "setting": "bamyardgrass; [3]", "value": 0}, {"measurement": "Barnyardgrass plant response rating", "setting": "bamyardgrass; [4]", "value": 0}, {"measurement": "Plant response rating, Giant foxtail", "setting": "giant foxtail; [5]", "value": 0}, {"measurement": "Giant foxtail plant response rating", "setting": "giant foxtail; [6]", "value": 0}, {"measurement": "Giant foxtail plant response rating (0 to 10 scale)", "setting": "giant foxtail; Preemergence, Rate 125 g/ha", "value": 0}, {"measurement": "Giant foxtail plant response rating", "setting": "giant foxtail; [7]", "value": 0}, {"measurement": "Giant foxtail plant response rating", "setting": "giant foxtail; [8]", "value": 0}, {"measurement": "Giant foxtail plant response rating", "setting": "giant foxtail; [9]", "value": 0}, {"measurement": "Plant response rating, Giant foxtail", "setting": "giant foxtail; [10]", "value": 0}, {"measurement": "Plant response rating, Morningglory", "setting": "morningglory; [5]", "value": 0}, {"measurement": "Morningglory plant response rating", "setting": "morningglory; [6]", "value": 0}, {"measurement": "Morningglory plant response rating (0 to 10 scale)", "setting": "morningglory; Preemergence, Rate 125 g/ha", "value": 0}, {"measurement": "Morningglory plant response rating", "setting": "morningglory; [7]", "value": 0}, {"measurement": "Morningglory plant response rating", "setting": "morningglory; [8]", "value": 0}, {"measurement": "Morningglory plant response rating", "setting": "morningglory; [9]", "value": 0}, {"measurement": "Plant response rating, Morningglory", "setting": "morningglory; [10]", "value": 4}, {"measurement": "Plant response rating, Rape", "setting": "rape; [5]", "value": 0}, {"measurement": "Rape plant response rating", "setting": "rape; [6]", "value": 0}, {"measurement": "Rape plant response rating (0 to 10 scale)", "setting": "rape; Preemergence, Rate 125 g/ha", "value": 0}, {"measurement": "Rape plant response rating", "setting": "rape; [7]", "value": 0}, {"measurement": "Rape plant response rating", "setting": "rape; [8]", "value": 0}, {"measurement": "Rape plant response rating", "setting": "rape; [9]", "value": 0}, {"measurement": "Plant response rating, Rape", "setting": "rape; [10]", "value": 0}, {"measurement": "Plant response rating, Wheat", "setting": "wheat; [5]", "value": 0}, {"measurement": "Wheat plant response rating", "setting": "wheat; [6]", "value": 0}, {"measurement": "Wheat plant response rating (0 to 10 scale)", "setting": "wheat; Preemergence, Rate 125 g/ha", "value": 0}, {"measurement": "Wheat plant response rating", "setting": "wheat; [7]", "value": 0}, {"measurement": "Wheat plant response rating", "setting": "wheat; [8]", "value": 0}, {"measurement": "Wheat plant response rating", "setting": "wheat; [9]", "value": 0}, {"measurement": "Plant response rating, Wheat", "setting": "wheat; [10]", "value": 0}, {"measurement": "Plant response rating, Bedstraw", "setting": "bedstraw; [5]", "value": 0}, {"measurement": "Bedstraw plant response rating (0 to 10 scale)", "setting": "bedstraw; Preemergence, Rate 125 g/ha", "value": 0}, {"measurement": "Bedstraw plant response rating", "setting": "bedstraw; [7]", "value": 0}, {"measurement": "Bedstraw plant response rating", "setting": "bedstraw; [8]", "value": 0}, {"measurement": "Bedstraw plant response rating", "setting": "bedstraw; [9]", "value": 0}, {"measurement": "S. Flatsedge plant response rating", "setting": "smallflower flatsedge; [1]", "value": 0}, {"measurement": "S. Flatsedge plant response rating", "setting": "smallflower flatsedge; [2]", "value": 0}, {"measurement": "S. Flatsedge plant response rating", "setting": "smallflower flatsedge; [3]", "value": 0}, {"measurement": "S. Flatsedge plant response rating", "setting": "smallflower flatsedge; [4]", "value": 0}, {"measurement": "Plant response rating, Blackgrass", "setting": "blackgrass; [5]", "value": 0}, {"measurement": "Blackgrass plant response rating", "setting": "blackgrass; [6]", "value": 0}, {"measurement": "Blackgrass plant response rating (0 to 10 scale)", "setting": "blackgrass; Preemergence, Rate 125 g/ha", "value": 0}, {"measurement": "Blackgrass plant response rating", "setting": "blackgrass; [7]", "value": 0}, {"measurement": "Blackgrass plant response rating", "setting": "blackgrass; [9]", "value": 0}, {"measurement": "Plant response rating, Blackgrass", "setting": "blackgrass; Rate 250 g/ha, Postemergence, scale of 0 to 10 where 0 is no effect and 10 is complete control", "value": 0}, {"measurement": "Plant response rating, Blackgrass", "setting": "blackgrass; [10]", "value": 0}, {"measurement": "Plant response rating, Nutsedge", "setting": "purple nutsedge; [5]", "value": 0}, {"measurement": "Nutsedge plant response rating", "setting": "purple nutsedge; [6]", "value": 0}, {"measurement": "Nutsedge plant response rating (0 to 10 scale)", "setting": "purple nutsedge; Preemergence, Rate 125 g/ha", "value": 0}, {"measurement": "Nutsedge plant response rating", "setting": "purple nutsedge; [7]", "value": 0}, {"measurement": "Nutsedge plant response rating", "setting": "purple nutsedge; [8]", "value": 0}, {"measurement": "Nutsedge plant response rating", "setting": "purple nutsedge; [9]", "value": 0}, {"measurement": "Plant response rating, Nutsedge", "setting": "purple nutsedge; [10]", "value": 0}, {"measurement": "Plant response rating, Soybean", "setting": "soybean; [5]", "value": 1}, {"measurement": "Soybean plant response rating", "setting": "soybean; [6]", "value": 0}, {"measurement": "Soybean plant response rating (0 to 10 scale)", "setting": "soybean; Preemergence, Rate 125 g/ha", "value": 0}, {"measurement": "Soybean plant response rating", "setting": "soybean; [7]", "value": 0}, {"measurement": "Soybean plant response rating", "setting": "soybean; [8]", "value": 0}, {"measurement": "Soybean plant response rating", "setting": "soybean; [9]", "value": 1}, {"measurement": "Plant response rating, Soybean", "setting": "soybean; [10]", "value": 1}, {"measurement": "Plant response rating, Velvetleaf", "setting": "velvetleaf; [5]", "value": 0}, {"measurement": "Velvetleaf plant response rating", "setting": "velvetleaf; [6]", "value": 0}, {"measurement": "Velvetleaf plant response rating (0 to 10 scale)", "setting": "velvetleaf; Preemergence, Rate 125 g/ha", "value": 0}, {"measurement": "Velvetleaf plant response rating", "setting": "velvetleaf; [7]", "value": 0}, {"measurement": "Velvetleaf plant response rating", "setting": "velvetleaf; [8]", "value": 0}, {"measurement": "Velvetleaf plant response rating", "setting": "velvetleaf; [9]", "value": 0}, {"measurement": "Plant response rating, Velvetleaf", "setting": "velvetleaf; [10]", "value": 0}, {"measurement": "Ducksalad plant response rating", "setting": "duck salad; [1]", "value": 0}, {"measurement": "Ducksalad plant response rating", "setting": "duck salad; [2]", "value": 0}, {"measurement": "Ducksalad plant response rating", "setting": "duck salad; [3]", "value": 0}, {"measurement": "Ducksalad plant response rating", "setting": "duck salad; [4]", "value": 0}, {"measurement": "Plant response rating, Wild oats", "setting": "wild oat; [5]", "value": 0}, {"measurement": "Wild oats plant response rating", "setting": "wild oat; [6]", "value": 0}, {"measurement": "Wild oats plant response rating (0 to 10 scale)", "setting": "wild oat; Preemergence, Rate 125 g/ha", "value": 0}, {"measurement": "Wild oats plant response rating", "setting": "wild oat; [7]", "value": 0}, {"measurement": "Wild oats plant response rating", "setting": "wild oat; [8]", "value": 0}, {"measurement": "Wild oats plant response rating", "setting": "wild oat; [9]", "value": 0}, {"measurement": "Plant response rating, Wild oats", "setting": "wild oat; [10]", "value": 0}]}
